Assay results from patent US11999713B2, “Methionine adenosyltransferase 2a (MAT2A) inhibitors and uses thereof” (Insilico Medicine IP Limited, priority 2021, dated 2024).
pIC50: −log10 of the molar value.

target: MAT2A (Homo sapiens, UniProt P31153); test: MAT2A Biochemical Assay; conditions: 1 uM start, 3-fold dilution, 10 doses; Biomol Green, O.D.620; read-out: MAT2A enzymatic IC50
Procedure: Example A: MAT2A Biochemical Assay
Compounds described herein were tested as follows:
(1). Prepared 1× Assay buffer.
(2). Preparation of compound concentration gradient: the compounds test condition were 1 uM start, 3-fold dilution, 10 doses, singlet or duplicate. 100× concentration compounds were prepared in 384-well plate. Then used Echo 550 to transfer 250 nl to a 384-reaction plate for later use. Added 250 nl of 100% DMSO to the negative and positive control wells.
(3). Prepared 1.67× final concentration enzyme solution with 1× Assay buffer.
(4). Added 15 μl of 1.67× Enzyme solution to the compound wells and positive control wells; added 15 μl of 1× Assay buffer to the negative control wells.
(5). Centrifuged at 1000 rpm for 30 seconds and incubate for 15 minutes.
(6). Prepared 2.5× final concentration Substrate mix solution with 1× Assay buffer.
(7). Added 10 μl of 2.5× final concentration Substrate mix solution to start the reaction.
(8). Centrifuged at 1000 rpm for 30 seconds and incubate for 150 minutes.
(9). Added 50 μl Biomol Green to stop the reaction, centrifuge at 1000 rpm for 30 seconds and incubate for 15 minutes, read O.D.620, process data.
(1) Using GraphPad Prism 5.
(2) % Inh=(Max signal−Compound signal)/(Max signal−Min signal)*100.
(3) Max signal was obtained from the positive control wells.
(4) Min signal was obtained from the negative control wells.

Chain of MAT2A (P31153 whole entry, species assumed): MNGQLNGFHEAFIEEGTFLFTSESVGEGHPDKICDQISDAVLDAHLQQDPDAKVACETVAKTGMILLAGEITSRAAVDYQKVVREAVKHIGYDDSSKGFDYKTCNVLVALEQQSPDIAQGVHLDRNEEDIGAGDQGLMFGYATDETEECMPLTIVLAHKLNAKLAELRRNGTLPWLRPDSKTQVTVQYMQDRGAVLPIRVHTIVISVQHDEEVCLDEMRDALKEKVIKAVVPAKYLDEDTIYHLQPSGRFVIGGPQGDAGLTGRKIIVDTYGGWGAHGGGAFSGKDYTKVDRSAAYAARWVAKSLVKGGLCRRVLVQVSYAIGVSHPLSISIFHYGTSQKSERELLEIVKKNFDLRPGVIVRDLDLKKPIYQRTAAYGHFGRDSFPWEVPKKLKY

| Structure (SMILES) | pIC50 |
| --- | --- |
| C#CCOc1nc(=O)n(-c2cccnc2)c2cc(Cl)ccc12 [Example 9, 7-chloro-4-(prop-2-yn-1-yloxy)-1-(pyridin-3-yl)quinazolin-2(1H)-one] | 6.30 to 7.00 |
| C#CCNc1nc(=O)n(-c2cnccn2)c2cc(C(F)(F)F)cc(F)c12 [Example 32, 5-fluoro-4-(prop-2-yn-1-ylamino)-1-(pyrazin-2-yl)-7-(trifluoromethyl)quinazolin-2(1H)-one] | 7.00 to 7.30 |
| C#CC1(Nc2nc(=O)n(-c3cccnc3C)c3cc(C(F)(F)F)cc(OC(F)F)c23)CC1 [Example 41, 5-(difluoromethoxy)-4-((1-ethynylcyclopropyl)amino)-1-(2-methylpyridin-3-yl)-7-(trifluoromethyl)quinazolin-2(1H)-one] | 7.00 to 7.30 |
| C#CC1(Nc2nc(=O)n(-c3cccnc3C)c3nc(C(F)(F)F)cc(OC)c23)CC1 [Example 43, 4-((1-ethynylcyclopropyl)amino)-5-methoxy-1-(2-methylpyridin-3-yl)-7-(trifluoromethyl)pyrido[2,3-d]pyrimidin-2(1H)-one] | 7.00 to 7.30 |
| C#CCNc1nc(=O)n(-c2cccnc2)c2cc(C(F)(F)F)cnc12 [Example 55, 4-(prop-2-yn-1-ylamino)-1-(pyridin-3-yl)-7-(trifluoromethyl)pyrido[3,2-d]pyrimidin-2(1H)-one] | 6.00 to 6.30 |
| C#CC(C)Nc1nc(=O)n(-c2cccnc2)c2cc(C(F)(F)F)ncc12 (stereo not drawn) [Example 59, 4-(but-3-yn-2-ylamino)-1-(pyridin-3-yl)-7-(trifluoromethyl)pyrido[4,3-d]pyrimidin-2(1H)-one] | 6.30 to 7.00 |
| C#CC1(Nc2nc(=O)n(-c3cccnc3)c3cc(C(F)(F)F)ncc23)CC1 [Example 60, 4-((1-ethynylcyclopropyl)amino)-1-(pyridin-3-yl)-7-(trifluoromethyl)pyrido[4,3-d]pyrimidin-2(1H)-one] | 6.30 to 7.00 |
| C#CCNc1nc(=O)n(-c2cncnc2)c2cc(Cl)ccc12 [Example 71, 7-chloro-4-(prop-2-yn-1-ylamino)-1-(pyrimidin-5-yl)quinazolin-2(1H)-one] | 6.30 to 7.00 |
| C#CCNc1nc(=O)n(-c2cnn(C)c2)c2cc(C(F)(F)F)ccc12 [Example 72, 1-(1-methyl-1H-pyrazol-4-yl)-4-(prop-2-yn-1-ylamino)-7-(trifluoromethyl)quinazolin-2(1H)-one] | 6.30 to 7.00 |

The next lines start with the values.

| pIC50 | Structure (SMILES) |
| --- | --- |
| 7.00 to 7.30 | CN(C)CC#CCNc1nc(=O)n(-c2cccnc2)c2cc(Cl)ccc12 [Example 3, 7-chloro-4-((4-(dimethylamino)but-2-yn-1-yl)amino)-1-(pyridin-3-yl)quinazolin-2(1H)-one] |
| 6.30 to 7.00 | C#CC1CCCN(c2nc(=O)n(-c3ccccc3Cl)c3cc(Cl)ccc23)C1 (stereo not drawn) [Example 11, 7-chloro-1-(2-chlorophenyl)-4-(3-ethynylpiperidin-1-yl)quinazolin-2(1H)-one] |
| 6.30 to 7.00 | C#CC1(O)CN(c2nc(=O)n(-c3ccccc3Cl)c3cc(Cl)ccc23)C1 [Example 12, 7-chloro-1-(2-chlorophenyl)-4-(3-ethynyl-3-hydroxyazetidin-1-yl)quinazolin-2(1H)-one] |
| 7.00 to 7.30 | C#CCNc1nc(=O)n(-c2cccnc2)c2cc(C(F)(F)F)cc(OC(F)F)c12 [Example 39, 5-(difluoromethoxy)-4-(prop-2-yn-1-ylamino)-1-(pyridin-3-yl)-7-(trifluoromethyl)quinazolin-2(1H)-one] |
| 6.30 to 7.00 | C#CCNc1nc(=O)n(-c2cc(C)cnc2C)c2cc(C(F)(F)F)ccc12 [Example 44, 1-(2,5-dimethylpyridin-3-yl)-4-(prop-2-yn-1-ylamino)-7-(trifluoromethyl)quinazolin-2(1H)-one] |
| 6.30 to 7.00 | C#CCNc1nc(=O)n(-c2cccnc2)c2cc(C(F)(F)F)ncc12 [Example 58, 4-(prop-2-yn-1-ylamino)-1-(pyridin-3-yl)-7-(trifluoromethyl)pyrido[4,3-d]pyrimidin-2(1H)-one] |
| 7.00 to 7.30 | C#CC1(Nc2nc(=O)n(-c3cccnc3)c3nc(C(F)(F)F)ncc23)CC1 [Example 62, 4-((1-ethynylcyclopropyl)amino)-1-(pyridin-3-yl)-7-(trifluoromethyl)pyrimido[4,5-d]pyrimidin-2(1H)-one] |
| 7.00 to 7.30 | C=CC1(Nc2nc(=O)n(-c3cccnc3C)c3cc(C(F)(F)F)cc(OC)c23)CC1 [Example 78] |
| 6.30 to 7.00 | NC/C=C/CNc1nc(=O)n(-c2cccnc2)c2cc(C(F)(F)F)ccc12 [Example 79, (E)-4-((4-aminobut-2-en-1-yl)amino)-1-(pyridin-3-yl)-7-(trifluoromethyl)quinazolin-2(1H)-one] |
